Test results taken from patent US20070238742A1, “METHODS OF PREPARATION AND RESOLUTION OF E/Z ISOMERS OF VINYLFURO[2,3-D]PYRIMIDINE AND THEIR BIOLOGICAL ACTIVITIES AND RELATED COMPOSITIONS AND METHODS OF TREATMENT” (priority 2006, published 2007).

Test system: chick aorta
Assay: aortic ring assay: chick aorta pieces in culture with angiogenic agents
Format: cell-based
Details: for resumption of angiogenesis / regrowth of capillary-like structures on removal: after removal of the agent, relative to tissue not treated with antiangiogenic agents (control); for inhibition of angiogenesis compared with the E/Z mixture: E-isomer vs E/Z mixture 5
Method: Biological activity in angiogenic assays were chosen as a way to compare anti-angiogenic activity, potency an reversibility of inhibition. The studies were conducted on pieces of chick aorta placed in culture with a mixture of angiogenic agents and various compounds.
Unresolved mixture of E/Z-isomers 5 and isolated E-isomer 1 from the series of compounds under study were assessed for desirable biological activities, i.e., antiangiogenic activity and persistence of inhibitory activity. It is well known that binding vascular endothelial growth factor with antibodies or aptamers or inhibiting VEGF signaling with small molecules reduces and even reverses angiogenesis. However, angiogenesis rapidly resumes once the agent is removed (Mancuso et al., J. Clin. Invest., 116:610-21, 2006; Baffert et al., Am. J. Physiol. Heart, 290:H509-11, 2006). In the case of tumors, rapid regrowth of new vessels contributes to the regrowth and survival of the tumor.

SMILES | resumption of angiogenesis / regrowth of capillary-like structures on removal [%] | inhibition of angiogenesis compared with the E/Z mixture (comparison in words) | inhibition of angiogenesis compared with the E/Z mixture (comparison in words, listed as E-isomer) | resumption of angiogenesis compared with the E/Z parent compound (comparison in words, after removal) | inhibition of capillary outgrowth (aortic ring assay, compound present) [%]
Nc1nc(N)c2c(/C=C/c3ccc4ccccc4c3)coc2n1 (single isomer, unassigned; isomer 1) [E-isomer 1, 5-E-(2-naphthalen-2-yl-vinyl)-furo[2,3-d]pyrimidine-2,4-diamine] | 31 | comparable inhibition of angiogenesis | greater inhibition on a molar basis | less resumption of angiogenesis | 
Nc1nc(N)c2c(C=Cc3ccc4ccccc4c3)coc2n1 [E/Z mixture 5, 5-Z/E-(2-naphthalen-2-yl-vinyl)-furo[2,3-d]pyrimidine-2,4-diamine] | ~72 |  |  |  | 84
